The target in test [1] is T1, bradykinin receptor 1 (B1R) of the rat (Rattus norvegicus, UniProt P97583).
T1 construct: expressed in transfected cells; host or cells: CHO K1 cells
T1 sequence (P97583 1-337): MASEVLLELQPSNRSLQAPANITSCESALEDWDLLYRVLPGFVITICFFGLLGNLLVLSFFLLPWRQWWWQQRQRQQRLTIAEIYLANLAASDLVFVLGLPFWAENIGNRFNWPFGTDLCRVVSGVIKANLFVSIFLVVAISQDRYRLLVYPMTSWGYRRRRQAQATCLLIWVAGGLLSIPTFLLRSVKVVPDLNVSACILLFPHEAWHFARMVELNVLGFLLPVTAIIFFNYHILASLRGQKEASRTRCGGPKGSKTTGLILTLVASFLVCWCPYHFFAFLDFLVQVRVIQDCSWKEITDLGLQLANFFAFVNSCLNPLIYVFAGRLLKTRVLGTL
Nature of the test: Functional study on the bradykinin receptor 1 (B1R), rat: FLIPR Ca2+ influx assay. It is filed as cell-based. An excerpt: (§1) The agonistic or antagonistic action of substances can be determined on the bradykinin receptor 1 (B1R) of the species human and rat using the following assay. According to this assay, the Ca^2+ influx through the channel is quantified with the aid of a Ca^2+-sensitive dye (Fluo-4 type, Molecular Probes Europe BV, Leiden, Netherlands) using a Fluorescent Imaging Plate Reader (FLIPR, Molecular Devices, Sunnyvale, USA).
(§2) Chinese hamster ovary cells (CHO K1 cells) which have been stably transfected with the human B1R gene (hB1R cells) or with the B1R gene of the rat (rB1R cells) are used. For functional studies, the cells are plated out on black 96-well plates having a clear base (BD Biosciences, Heidelberg, Germany or Greiner, Frickenhausen, Germany) in a density of 20,000-35,000 cells/well. The cells are incubated overnight at 37° C. and with 5% CO2 in culture medium (hB1R cells: Nutrient Mixture Ham's F12, Gibco Invitrogen GmbH, Karlsruhe, Germany or DMEM, Sigma-Aldrich, Taufkirchen, Germany; rB1R cells: D-MEM/F12, Gibco Invitrogen GmbH, Karlsruhe, Germany), with 10 vol. % FBS (fetal bovine serum, Gibco Invitrogen GmbH, Karlsruhe, Germany or PAN Biotech GmbH, Aidenbach, Germany).
(§3) On the following day, the cells are loaded for 60 minutes at 37° C. with 2.13 μM Fluo-4 (Molecular Probes Europe BV, Leiden, Netherlands) in HBSS buffer (Hank's buffered saline solution, Gibco Invitrogen GmbH, Karlsruhe, Germany) with 2.5 mM probenecid (Sigma-Aldrich, Taufkirchen, Germany) and 10 mM HEPES (Sigma-Aldrich, Taufkirchen, Germany). The plates are then washed twice with HBSS buffer, and HBSS buffer additionally containing 0.1% BSA (bovine serum albumin; Sigma-Aldrich, Taufkirchen, Germany), 5.6 mM glucose and 0.05% gelatin (Merck KGaA, Darmstadt, Germany) is added to the plates. After incubation for a further 20 minutes at room temperature, the plates are inserted into the FLIPR for Ca^2+ measurement. Alternatively, washing is carried out with buffer A (15 mM HEPES, 80 mM NaCl, 5 mM KCl, 1.2 mM CaCl2, 0.7 mM MgSO4, 2 g/l glucose, 2.5 mM probenecid) followed by loading with buffer A with added 2.5 μM Fluo-4 and 0.025% Pluronic F127 (Sigma-Aldrich, Taufkirchen, Germany). The cells are then washed twice with buffer A and incubated for 30 minutes at room temperature with buffer A additionally containing 0.05% BSA and 0.05% gelatin and are then inserted into the FLIPR for Ca^2+ measurement.
(§4) The Ca^2+-dependent fluorescence is measured before and after the addition of substances (λex=488 nm, λem=540 nm). Quantification is carried out by measuring the highest fluorescence intensity (FC, fluorescence counts) over time.
(§5) The FLIPR protocol consists of two substance additions. Test substances (10 μM) are first pipetted onto the cells and the Ca^2+ influx is compared with the control (hB1R: Lys-Des-Arg^9-bradykinin>=0.5 nM; rB1R: Des-Arg^9-bradykinin 10 μM). This gives the activation in %, based on the Ca^2+ signal after addition of Lys-Des-Arg^9-bradykinin (>=0.5 nM) or Des-Arg^9-bradykinin (10 μM).
(§6) After 10-20 minutes' incubation, Lys-Des-Arg^9-bradykinin (hB1R) or Des-Arg^9-bradykinin (rB1R) is applied in the concentration of the EC80, and the influx of Ca^2+ is likewise determined.
(§7) Antagonists lead to suppression of the Ca^2+ influx. The % inhibition compared with the maximum achievable inhibition is calculated.
(§8) In order to determine the IC50 value, the substances are added in various concentrations. Duplicate or triplicate determinations (n=2 or n=3) are carried out, and these are repeated in at least one further independent experiment (N>=2).

Test [2] has as its target T2, human bradykinin receptor 1 (B1R) (Homo sapiens, UniProt P46663).
T2 construct: expressed in transfected cells; host or cells: CHO K1 cells
T2 sequence (P46663 1-353): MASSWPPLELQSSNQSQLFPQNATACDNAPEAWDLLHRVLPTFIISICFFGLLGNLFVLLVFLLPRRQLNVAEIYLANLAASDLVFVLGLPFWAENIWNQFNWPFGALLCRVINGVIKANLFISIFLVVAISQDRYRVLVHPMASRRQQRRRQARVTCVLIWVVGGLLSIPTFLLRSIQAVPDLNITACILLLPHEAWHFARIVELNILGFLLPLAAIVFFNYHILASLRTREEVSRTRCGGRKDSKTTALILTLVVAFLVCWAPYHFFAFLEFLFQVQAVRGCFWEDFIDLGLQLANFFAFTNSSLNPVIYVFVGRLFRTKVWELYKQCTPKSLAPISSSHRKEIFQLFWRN
The test is described as follows: Functional study on the bradykinin receptor 1 (B1R), human: FLIPR Ca2+ influx assay. It is filed as cell-based.
Text: Functional Study on the Human Bradykinin Receptor 1 (B1R)
as §1, §2, §3, §4, §5, §6, §7, §8

Setting [3] is: test substance 10 μM, CHO K1 cells transfected with rat B1R, Des-Arg9-bradykinin at EC80, Ca2+ influx (Fluo-4, FLIPR), read-out: B1R antagonism, rat [10 μM] % inhibition.
Where [4] appears, read: test substance 10 μM, CHO K1 cells transfected with human B1R, Lys-Des-Arg9-bradykinin at EC80, Ca2+ influx (Fluo-4, FLIPR), read-out: B1R antagonism, human [10 μM] % inhibition.

Like-named read-outs stand apart in the source and are kept apart here.

For `CN(C)C(c1cccc(F)c1)C1CCC(NC(=O)C2Cc3ccccc3N2S(=O)(=O)c2ccc(Cl)c(Cl)c2)CC1` (stereo not shown) [Example 92, 1-(3,4-dichlorophenylsulfonyl)-N-(4-((dimethylamino)(3-fluorophenyl)methyl)cyclohexyl)indoline-2-carboxamide], the inhibition (in general, the relative decrease from the control value, in per cent) at 10 µM was -13% in test [1] (setting [3]) and 26% in test [2] (setting [4]).

`CN(C)C(c1cccc(F)c1)C1CCC(NC(=O)CC2c3ccccc3CCN2S(=O)(=O)c2ccc(Cl)c(Cl)c2)CC1` (stereo not shown) [Example 26, 2-(2-(3,4-dichlorophenylsulfonyl)-1,2,3,4-tetrahydroisoquinolin-1-yl)-N-(4-((dimethylamino)(3-fluorophenyl)methyl)cyclohexyl)acetamide]: the values for the inhibition at 10 µM in test [1] (setting [3]) and in test [2] (setting [4]) were 73% and 97.4%, respectively.

Turning to `COc1ccc(S(=O)(=O)N2CCc3ccccc3C2CC(=O)NCCC2CCC(C(c3cccs3)N(C)C)CC2)cc1` (stereo not shown) [Example 25, N-{2-[4-(dimethylamino-thiophen-2-yl-methyl)-cyclohexyl]-ethyl}-2-[2-(4-methoxy-benzenesulfonyl)-1,2,3,4-tetrahydro-isoquinolin-1-yl]-acetamide], the inhibition at 10 µM in test [1] (setting [3]) turned out to be 68%; in test [2] (setting [4]), 79.5%.

For the compound `CN(C)C(c1ccccc1)C1CCC(CCNC(=O)Cc2ccccc2N(C)S(=O)(=O)c2ccc(Cl)c(Cl)c2)CC1` (stereo not shown) [Example 98, 2-(2-(3,4-dichloro-N-methylphenylsulfonamido)phenyl)-N-(2-(4-((dimethylamino)(phenyl)methyl)cyclohexyl)ethyl)acetamide], the values for the inhibition at 10 µM in test [1] (setting [3]) and in test [2] (setting [4]) were -8% and 66.8%, respectively.

On to `CN(C)C(c1cccc(F)c1)C1CCC(CCNC(=O)c2ccccc2N(C)S(=O)(=O)c2ccc(Cl)c(Cl)c2)CC1` (stereo not shown) [Example 44, 2-[(3,4-dichloro-benzenesulfonyl)-methyl-amino]-N-(2-{4-[dimethylamino-(3-fluoro-phenyl)-methyl]-cyclohexyl}-ethyl)-benzamide], for which the inhibition at 10 µM is 18% in test [1] (setting [3]) and 46.5% in test [2] (setting [4]).

Regarding `COc1ccc(S(=O)(=O)N2CCc3ccccc3C2CC(=O)NC2CCC(C(c3cccs3)N(C)C)CC2)cc1` (stereo not shown) [Example 15, N-[4-(dimethylamino-thiophen-2-yl-methyl)-cyclohexyl]-2-[2-(4-methoxybenzenesulfonyl)-1,2,3,4-tetrahydro-isoquinolin-1-yl]-acetamide], the inhibition at 10 µM came to 57% in test [1] (setting [3]) and 44.6% in test [2] (setting [4]).

Turning to `CN(C)C(c1ccccc1)C1CCC(NC(=O)CC2c3ccccc3CCN2S(=O)(=O)c2ccc(Cl)c(Cl)c2)CC1` (stereo not shown) [Example 10, 2-[2-(3,4-dichloro-benzenesulfonyl)-1,2,3,4-tetrahydro-isoquinolin-1-yl]-N-[4-(dimethylamino-phenyl-methyl)-cyclohexyl]-acetamide], the inhibition at 10 µM in test [1] (setting [3]) was 0%; in test [2] (setting [4]), 70.1%.

Consider `CN(C)C(c1cccc(F)c1)C1CCC(CNC(=O)CC2c3ccccc3CCN2S(=O)(=O)c2ccc(Cl)c(Cl)c2)CC1` (stereo not shown) [Example 28, 2-[2-(3,4-dichloro-benzenesulfonyl)-1,2,3,4-tetrahydro-isoquinolin-1-yl]-N-{4-[dimethylamino-(3-fluoro-phenyl)-methyl]-cyclohexylmethyl}-acetamide], for which the inhibition at 10 µM in test [1] (setting [3]) is 34%; in test [2] (setting [4]), 26.3%.

`CN(C)C(CCc1ccccc1)C1CCC(NC(=O)C2Cc3ccccc3N2S(=O)(=O)c2ccc(Cl)c(Cl)c2)CC1` (stereo not shown) [Example 93, 1-(3,4-dichlorophenylsulfonyl)-N-(4-(1-(dimethylamino)-3-phenylpropyl)cyclohexyl)indoline-2-carboxamide]: the inhibition at 10 µM was -24% in test [1] (setting [3]) and 15.5% in test [2] (setting [4]).

Take `COc1ccc(S(=O)(=O)N2CCc3ccccc3C2CC(=O)NCC2CCC(C(c3ccccc3)N(C)C)CC2)cc1` (stereo not shown) [Example 17, N-[4-(dimethylamino-phenyl-methyl)-cyclohexylmethyl]-2-[2-(4-methoxybenzenesulfonyl)-1,2,3,4-tetrahydro-isoquinolin-1-yl]-acetamide]: the figures for the inhibition at 10 µM in test [1] (setting [3]) and in test [2] (setting [4]) were 41% and 36.6%, respectively.

In the case of `CN(C)C(CCc1ccccc1)C1CCC(CNC(=O)CC2c3ccccc3CCN2S(=O)(=O)c2ccc(Cl)c(Cl)c2)CC1` (stereo not shown) [Example 30, 2-[2-(3,4-dichloro-benzenesulfonyl)-1,2,3,4-tetrahydro-isoquinolin-1-yl]-N-[4-(1-dimethylamino-3-phenyl-propyl)-cyclohexylmethyl]-acetamide], the inhibition at 10 µM in test [1] (setting [3]) was 58%; in test [2] (setting [4]), 75.7%.

Consider `CN(C)C(c1ccccc1)C1CCC(NC(=O)c2ccccc2N(C)S(=O)(=O)c2ccc(Cl)c(Cl)c2)CC1` (stereo not shown) [Example 11, 2-[(3,4-dichloro-benzenesulfonyl)-methyl-amino]-N-[4-(dimethylamino-phenylmethyl)-cyclohexyl]-benzamide], for which the inhibition at 10 µM in test [1] (CHO-K1, read-out: B1R antagonism, rat [10 μM] % inhibition) worked out at 107%; in test [2] (CHO-K1, read-out: B1R antagonism, human [10 μM] % inhibition), 85.5%.

Turning to `CN(C)C(c1ccc(F)cc1)C1CCC(CNC(=O)CC2c3ccccc3CCN2S(=O)(=O)c2ccc(Cl)c(Cl)c2)CC1` (stereo not shown) [Example 31, 2-[2-(3,4-dichloro-benzenesulfonyl)-1,2,3,4-tetrahydro-isoquinolin-1-yl]-N-{4-[dimethylamino-(4-fluoro-phenyl)-methyl]-cyclohexylmethyl}-acetamide], the figures for the inhibition at 10 µM in test [1] (setting [3]) and in test [2] (setting [4]) were 48% and 54%, respectively.

For the compound `COc1ccc(S(=O)(=O)N2CCc3ccccc3C2CC(=O)NCC2CCC(C(c3ccc(Cl)cc3)N(C)C)CC2)cc1` (stereo not shown) [Example 20, N-{4-[(4-chloro-phenyl)-dimethylamino-methyl]-cyclohexylmethyl}-2-[2-(4-methoxy-benzenesulfonyl)-1,2,3,4-tetrahydro-isoquinolin-1-yl]-acetamide], the inhibition at 10 µM in test [1] (setting [3]) is 28%; in test [2] (setting [4]), 38.8%.

The values are drawn from patent US8119633B2, “Substituted sulfonamide compounds” (Gruenenthal GmbH, priority 2007, dated 2012).
